Results published in US20240309043A1, “THERAPEUTICALLY ACTIVE STEROIDAL DERIVATIVES” (Organon R&D Finland Ltd., priority 2017, published 2024).

How the values were obtained:
human hepatocytes = assay: Metabolic stability assay, human hepatocyte incubations; format: in vitro ADME; conditions: 37° C., 0-60 min, half life
Method: The in vitro metabolic stability of the compounds of the invention was determined for exemplified compounds using human hepatocyte incubations. Study compounds were incubated 0, 10, 20, 40 and 60 min at 37° C. Samples were collected at all time points and compounds were detected by LC-MS/MS analysis. The percent compound remaining is calculated by comparing the peak area of the parent compound at each time point to time zero. In vitro metabolic stability was determined as half life (T½), which was determined by regression analysis of the percent parent disappearance vs. time curve. The results are summarized in Table2.

[1] = target: T1, recombinant human 17β-HSD2 (Homo sapiens, UniProt P37059); assay: Inhibition of recombinant human 17β-HSD2; format: biochemical; conditions: inhibitor 1 μM; 50 nM estradiol, 1 mM NADH, 30 min RT
T1 construct: made in house; host or cells: Sd9 (Sf9) insect cells, baculovirus (Bac to Bac Expression System)
T1 sequence (P37059 1-387): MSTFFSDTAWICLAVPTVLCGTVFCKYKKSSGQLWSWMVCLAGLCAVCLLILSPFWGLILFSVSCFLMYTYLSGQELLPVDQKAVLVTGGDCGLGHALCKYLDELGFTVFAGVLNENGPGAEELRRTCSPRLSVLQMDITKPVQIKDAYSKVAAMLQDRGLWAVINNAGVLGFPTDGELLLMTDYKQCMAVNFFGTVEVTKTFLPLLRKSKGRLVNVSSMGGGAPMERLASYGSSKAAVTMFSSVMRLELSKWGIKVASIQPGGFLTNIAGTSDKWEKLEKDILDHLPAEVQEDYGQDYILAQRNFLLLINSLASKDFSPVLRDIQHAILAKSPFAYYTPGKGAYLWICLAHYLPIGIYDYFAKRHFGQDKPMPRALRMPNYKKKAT
In short: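 Sf9 baculovirus-expressed enzyme membrane extract (4 μg/ml) incubated 30 min at RT in 20 mM KH2PO4 pH 8.5 with 50 nM estradiol (³H-tracer) and 1 mM NADH, inhibitor at 1 μM or 0.1 μM, 1% DMSO. TCA-stopped; estradiol-to-estrone conversion by radio-HPLC, % inhibition = 100 − % conversion.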

[2] = system: HSD1 enzyme that is expressed in rabbit placenta tissue; assay: Inhibition of E1 to E2 conversion in rabbit placenta tissue homogenate; format: biochemical; conditions: inhibitor 100 nM, 30 nM estrone, 30 min
[3] = target: T2, recombinant human 17β-HSD1 (Homo sapiens, UniProt P14061); assay: Inhibition of recombinant human 17β-HSD1; format: biochemical; conditions: inhibitor 100 nM; 30 nM estrone, 1 mM NADPH, 30 min RT
T2 construct: made in house; host or cells: Sd9 (Sf9) insect cells, baculovirus (Bac to Bac Expression System)
T2 sequence (P14061 1-328): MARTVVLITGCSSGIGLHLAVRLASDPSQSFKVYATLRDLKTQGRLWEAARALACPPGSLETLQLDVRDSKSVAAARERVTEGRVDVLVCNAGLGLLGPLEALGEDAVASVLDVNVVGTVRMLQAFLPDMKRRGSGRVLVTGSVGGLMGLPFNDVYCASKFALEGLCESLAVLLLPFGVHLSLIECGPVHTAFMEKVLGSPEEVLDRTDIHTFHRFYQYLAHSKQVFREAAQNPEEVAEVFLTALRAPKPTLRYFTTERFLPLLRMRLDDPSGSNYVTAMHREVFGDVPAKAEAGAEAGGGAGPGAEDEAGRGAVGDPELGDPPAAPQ
In short: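 Microsomes from Sf9 cells expressing human 17β-HSD1 (1 μg/ml) were incubated for 30 min at RT in 20 mM KH2PO4 pH 7.4 with 30 nM ³H-estrone, 1 mM NADPH and inhibitor at 1 μM or 0.1 μM (1% DMSO). Estrone-to-estradiol conversion was measured by radio-HPLC after TCA stop, and % inhibition was taken as 100 − % conversion.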

Compound	Human hepatocytes MetStab T1_2 min (human hepatocytes)	inhibition at 1 µM [1]	Rabbit placenta inhibition % @100 nM [2]	inhibition at 0.1 µM [3]
Cc1cc(NC(=O)CC[C@@H]2C/C(=N\O)[C@@]3(C)CCC4c5cccc(F)c5CCC4C23)no1 (stereo partly drawn) [Compound 2, 3-((13S,15R,E)-4-fluoro-17-(hydroxyimino)-13-methyl-7,8,9,11,12,13,14,15,16,17-decahydro-6H-cyclopenta[a]phenanthren-15-yl)-N-(5-methylioxazol-3-yl)propanamide]	38 min	9%	75%	83%
COc1ccc(NC(=O)CC[C@@H]2C/C(=N\O)[C@@]3(C)CCC4c5cccc(F)c5CCC4C23)nn1 (stereo partly drawn) [Compound 4, 3-((13S,15R,E)-4-fluoro-17-(hydroxyimino)-13-methyl-7,8,9,11,12,13,14,15,16,17-decahydro-6H-cyclopenta[a]phenanthren-15-yl)-N-(6-methoxypyridazin-3-yl)propanamide]	42 min	13%	–	87%
COc1ccc(NC(=O)CC[C@@H]2C/C(=N\O)[C@@]3(C)CCC4c5cccc(F)c5CCC4C23)nc1 (stereo partly drawn) [Compound 6, 3-((13S,15R,E)-4-fluoro-17-(hydroxyimino)-13-methyl-7,8,9,11,12,13,14,15,16,17-decahydro-6H-cyclopenta[a]phenanthren-15-yl)-N-(5-methoxypyridin-2-yl)propanamide]	67 min	1%	79%	92%
C[C@]12CCC3c4cccc(F)c4CCC3C1[C@H](CCC(=O)Nc1ccc(F)cn1)C/C2=N\O (stereo partly drawn) [Compound 8, 3-((13S,15R,E)-4-fluoro-17-(hydroxyimino)-13-methyl-7,8,9,11,12,13,14,15,16,17-decahydro-6H-cyclopenta[a]phenanthren-15-yl)-N-(5-fluoropyridin-2-yl)propanamide]	52 min	2%	37%	90%
C[C@]12CCC3c4cccc(F)c4CCC3C1[C@H](CCC(=O)Nc1cccnn1)C/C2=N\O (stereo partly drawn) [Compound 20]	17 min	0%	50%	80%
CC(C)c1ccc(NC(=O)CC[C@@H]2C/C(=N\O)[C@@]3(C)CCC4c5ccc(F)cc5CCC4C23)nc1 (stereo partly drawn) [Compound 42, 3-((13S,15R,E)-3-fluoro-17-(hydroxyimino)-13-methyl-7,8,9,11,12,13,14,15,16,17-decahydro-6H-cyclopenta[a]phenanthren-15-yl)-N-(5-isopropylpyridin-2-yl)propanamide]	78 min	-5%	41%	96%
COc1ccnc(NC(=O)CC[C@@H]2C/C(=N\O)[C@@]3(C)CCC4c5ccc(Cl)cc5CCC4C23)c1 (stereo partly drawn) [Compound 56, 3-((13S,15R,E)-3-chloro-17-(hydroxyimino)-13-methyl-7,8,9,11,12,13,14,15,16,17-decahydro-6H-cyclopenta[a]phenanthren-15-yl)-N-(4-methoxypyridin-2-yl)propanamide]	334 min	3%	0%	63%
COc1ccc(NC(=O)CC[C@@H]2C/C(=N\O)[C@@]3(C)CCC4c5ccccc5CCC4C23)nc1 (stereo partly drawn) [Compound 84]	35 min	-15%	35%	73%
C[C@]12CCC3c4ccccc4CCC3C1[C@H](CCC(=O)Nc1ccc(N3CCOCC3)cn1)C/C2=N\O (stereo partly drawn) [Compound 90, 3-((13S,15R,E)-17-(hydroxyimino)-13-methyl-7,8,9,11,12,13,14,15,16,17-decahydro-6H-cyclopenta[a]phenanthren-15-yl)-N-(5-morpholinopyridin-2-yl)propanamide]	83 min	-6%	47%	82%
CC(C)c1ccc(NC(=O)CC[C@@H]2C/C(=N\O)[C@@]3(C)CCC4c5ccccc5CCC4C23)nc1 (stereo partly drawn) [Compound 96, 3-((13S,15R,E)-17-(hydroxyimino)-13-methyl-7,8,9,11,12,13,14,15,16,17-decahydro-6H-cyclopenta[a]phenanthren-15-yl)-N-(5-isopropylpyridin-2-yl)propanamide]	46 min	-4%	51%	84%
C[C@]12CCC3c4ccccc4CCC3C1[C@H](CCC(=O)Nc1ncc(F)cc1F)C/C2=N\O (stereo partly drawn) [Compound 166, N-(3,5-difluoropyridin-2-yl)-3-((13S,15R,E)-17-(hydroxyimino)-13-methyl-7,8,9,11,12,13,14,15,16,17-decahydro-6H-cyclopenta[a]phenanthren-15-yl)propanamide]	–	7%	3%	56%
C[C@]12CCC3c4ccccc4CCC3C1[C@H](CCC(=O)Nc1cccc(F)n1)C/C2=N\O (stereo partly drawn) [Compound 168, N-(6-fluoropyridin-2-yl)-3-((13S,15R,E)-17-(hydroxyimino)-13-methyl-7,8,9,11,12,13,14,15,16,17-decahydro-6H-cyclopenta[a]phenanthren-15-yl)propanamide]	–	9%	6%	26%
C[C@]12CCC3c4ccc(Cl)cc4CCC3C1[C@H](CCC(=O)Nc1cccc(F)n1)C/C2=N\O (stereo partly drawn) [Compound 170, 3-((13S,15R,E)-3-chloro-17-(hydroxyimino)-13-methyl-7,8,9,11,12,13,14,15,16,17-decahydro-6H-cyclopenta[a]phenanthren-15-yl)-N-(6-fluoropyridin-2-yl)propanamide]	–	12%	13%	34%
CN(C)C(=O)c1ccc(NC(=O)CC[C@@H]2C/C(=N\O)[C@@]3(C)CCC4c5ccc(Cl)cc5CCC4C23)nc1 (stereo partly drawn) [Compound 172, 6-(3-((13S,15R,E)-3-chloro-17-(hydroxyimino)-13-methyl-7,8,9,11,12,13,14,15,16,17-decahydro-6H-cyclopenta[a]phenanthren-15-yl)propanamido)-N,N-dimethylnicotinamide]	–	9%	9%	45%
C[C@]12CCC3c4ccc(Cl)cc4CCC3C1[C@H](CCC(=O)Nc1cc3c([nH]c1=O)CCCC3)C/C2=N\O (stereo partly drawn) [Compound 174, 3-((13S,15R,E)-3-chloro-17-(hydroxyimino)-13-methyl-7,8,9,11,12,13,14,15,16,17-decahydro-6H-cyclopenta[a]phenanthren-15-yl)-N-(2-oxo-1,2,5,6,7,8-hexahydroquinolin-3-yl)propanamide]	–	12%	10%	84%
CN(C)C(=O)c1ccc(NC(=O)CC[C@@H]2C/C(=N\O)[C@@]3(C)CCC4c5cccc(F)c5CCC4C23)nc1 (stereo partly drawn) [Compound 176, 6-(3-((13S,15R,E)-4-fluoro-17-(hydroxyimino)-13-methyl-7,8,9,11,12,13,14,15,16,17-decahydro-6H-cyclopenta[a]phenanthren-15-yl)propanamido)-N,N-dimethylnicotinamide]	–	5%	34%	87%
